These are literature values, as cited in patent EP4656183A1, “TIRZEPATIDE COMPOSITIONS AND PREPARATION METHOD” (Galenicum Health SLU, priority 2024, dated 2025).

The conditions of the data set: buffer; several values = successive pKa values.

For the compound `O=S(=O)(O)CCN1CCN(CCO)CC1` [HEPES], the pKa was ~ 7.5.
